# Where “and” joins values, the source holds several entries; their conditions need not be identical. Identical values can stand only once. Entries after “also recorded” stand apart in the source; their conditions may differ.
# Columns and labels:
# C8-D1A cells = test: Wst-1 cell viability assay after H2O2 + TNFα stress, astrocyte cell line
# Text: It is well-known in the art that inflammation and oxidative stress are significant contributors to neurodegeneration. H2O2 is commonly used in experiments to simulate oxidate stress. […] Accordingly, in this in vitro assay, TNF-alpha and hydrogen peroxide (H2O2) were used as stressors to induce cell death to model ALS.
# Cell viability after treatment with H2O2 and TNFα was examined in NCS34 cells, a mouse motor neuron cell line, and in C8-D1A cells, a mouse astrocyte cell line (from the American Type Tissue Culture Collection). The protocol for assessing the activity of any of the compounds disclosed herein in cultured cells is as follows:
# Day 1: Cells were plated into 96 well plates at a confluency of 60%. Cells were maintained in growth medium consisting of Dulbecco's Modified Essential Medium (DMEM, LifeTechnologies Inc.) supplemented with 10% fetal bovine serum (Hyclone) and incubated in a tissue culture incubator at 37° C., 95% […] and 5% CO2.
# Day 2: The growth medium was changed to 200 μl/well DMEM without fetal bovine serum. Additional agents, such as varying concentrations of H2O2 (Sigma Aldrich Inc.), TNFalpha, and a vehicle control or any of the compounds disclosed herein, e.g., NPD1 (Anida Pharma Inc.) were added to the growth medium. The cells were incubated overnight for 24 hours in a tissue culture incubator at 37° C., 95% […] and 5% CO2
# Day 3: After 24 hours, 20 μl of Wst-1 cell viability reagent (Roche Applied Sciences Inc.) was added to each well (1:10 dilution in growth medium). Mix well by gently rocking the plate side-to-side. The cells were incubated at 37° C. for 60 minutes. […] A background control (or blank) for the growth medium and WST-1 reagent (without cells) can also be measured. The 630 nm background absorbance values are then subtracted from the 450 nm measurement for a normalized 450 nm absorbance value.
# NPD1 activity was analyzed in C8-D1A cells, a mouse astrocyte cell line (American Type Tissue Culture Collection). C8-D1A cells were treated with increasing concentrations of H2O2 (1 μM, 10 μM, 50 μM, 100 μM, 400 μM and 800 μM) and 10 ng/ml TNFα without NPD1, or with 50 nM or 100 nM NPD1 for 24 hours. Cell viability was determined by Wst-1 cell viability assay, as described in Example 1. Each sample was performed in triplicate.
# [1] = Wst-1 cell viability assay after H2O2 + TNFα stress, motor neuron cell line; type: cell-based, mouse; details: mouse; NPD 100 nM alone, 24 hrs incub., control (veh.) = 100
# Experimental: (§1) Pharma Inc.) were added to the growth medium. […] NPD1, or Compound 1 in Table 1, was analyzed for activity in NCS34 cells, a mouse motor neuron cell line. […] Treatment with H2O2 and 10 ng/ml TNFα caused between 26-37% cell death in the motor neurons (FIG. 1).
# NSC34 cells = test: as above; type: cell-based, mouse
# Experimental: as §1
# [2] = 0 uM H2O2 + 10 ng/ml TNFa, 50 nM NPD1, 24 hours
# [3] = 0 uM H2O2 + 10 ng/ml TNFa, 100 nM NPD1, 24 hours
# [4] = 25 uM H2O2 + 10 ng/ml TNFa, 50 nM NPD1, 24 hours
# [5] = 25 uM H2O2 + 10 ng/ml TNFa, 100 nM NPD1, 24 hours
# [6] = 50 uM H2O2 + 10 ng/ml TNFa, 50 nM NPD1, 24 hours
# [7] = 50 uM H2O2 + 10 ng/ml TNFa, 100 nM NPD1, 24 hours
# [8] = 100 uM H2O2 + 10 ng/ml TNFa, 50 nM NPD1, 24 hours
# [9] = 100 uM H2O2 + 10 ng/ml TNFa, 100 nM NPD1, 24 hours
# [10] = 200 uM H2O2 + 10 ng/ml TNFa, 50 nM NPD1, 24 hours
# [11] = 200 uM H2O2 + 10 ng/ml TNFa, 100 nM NPD1, 24 hours
# [12] = 400 uM H2O2 + 10 ng/ml TNFa, 50 nM NPD1, 24 hours
# [13] = 400 uM H2O2 + 10 ng/ml TNFa, 100 nM NPD1, 24 hours
# [14] = 800 uM H2O2 + 10 ng/ml TNFa, 50 nM NPD1, 24 hours
# [15] = 800 uM H2O2 + 10 ng/ml TNFa, 100 nM NPD1, 24 hours
# [16] = Mus musculus, C8-D1A, read-out: % cell viability
# [17] = NPD 100 nM + TNFa 10 ng/ml + H2O2 1 uM, 24 hrs
# [18] = NPD 100 nM + TNFa 10 ng/ml + H2O2 10 uM, 24 hrs
# [19] = NPD 100 nM + TNFa 10 ng/ml + H2O2 50 uM, 24 hrs
# [20] = NPD 100 nM + TNFa 10 ng/ml + H2O2 100 uM, 24 hrs
# [21] = NPD 100 nM + TNFa 10 ng/ml + H2O2 400 uM, 24 hrs
# [22] = NPD 100 nM + TNFa 10 ng/ml + H2O2 800 uM, 24 hrs
smiles,measurement,setting,value
"CC/C=C\C[C@H](O)\C=C/C=C/C=C/[C@H](O)C/C=C\C/C=C\CCC(=O)[O-].[Na+] [NPD1, Sodium 4Z,7Z,10R,11E,13E,15Z,17S, 19Z)-10,17-dihydroxydocosa-4,7,11,13,15,19-hexaenoate]","absorbance after subtraction of background signal, avg",C8-D1A cells; [2],0.586 and 0.5861
same,"absorbance after subtraction of background signal, replicates 1-3",C8-D1A cells; [2],0.561 and 0.632 and 0.565
same,raw absorbance Avg.,C8-D1A cells; [2],1.03
same,"raw absorbance, replicates 1-3",C8-D1A cells; [2],1.0047 and 1.0764 and 1.0093
same,"absorbance after subtraction of background signal, avg",C8-D1A cells; [3],0.593 and 0.5931
same,"absorbance after subtraction of background signal, replicates 1-3",C8-D1A cells; [3],0.565 and 0.587 and 0.627
same,raw absorbance Avg.,C8-D1A cells; [3],1.037
same,"raw absorbance, replicates 1-3",C8-D1A cells; [3],1.0312 and 1.071 and 1.009
same,astrocyte cell survival and viability (in words),"C8-D1A cells; 50 nM or 100 nM NPD1, H2O2 + 10 ng/ml TNFα, 24 hours",increased cell survival and viability in a dose-dependent manner; also recorded: increased astrocyte viability and reduced astrocyte death
same,"absorbance after subtraction of background signal, avg",C8-D1A cells; [4],0.560 and 0.5597
same,"absorbance after subtraction of background signal, replicates 1-3",C8-D1A cells; [4],0.551 and 0.541 and 0.588
same,raw absorbance Avg.,C8-D1A cells; [4],1.004
same,"raw absorbance, replicates 1-3",C8-D1A cells; [4],0.9946 and 0.985 and 1.0316
same,"absorbance after subtraction of background signal, avg",C8-D1A cells; [5],0.555 and 0.5549
same,"absorbance after subtraction of background signal, replicates 1-3",C8-D1A cells; [5],0.563 and 0.524 and 0.578
same,raw absorbance Avg.,C8-D1A cells; [5],0.9989
same,"raw absorbance, replicates 1-3",C8-D1A cells; [5],0.9676 and 1.0219 and 1.0073
same,"absorbance after subtraction of background signal, avg",C8-D1A cells; [6],0.392 and 0.3915
same,"absorbance after subtraction of background signal, replicates 1-3",C8-D1A cells; [6],0.416 and 0.399 and 0.360
same,raw absorbance Avg.,C8-D1A cells; [6],0.8355
same,"raw absorbance, replicates 1-3",C8-D1A cells; [6],0.8604 and 0.8427 and 0.8035
same,"absorbance after subtraction of background signal, avg",C8-D1A cells; [7],0.412 and 0.4123
same,"absorbance after subtraction of background signal, replicates 1-3",C8-D1A cells; [7],0.434 and 0.390 and 0.414
same,raw absorbance Avg.,C8-D1A cells; [7],0.8563
same,"raw absorbance, replicates 1-3",C8-D1A cells; [7],0.8335 and 0.8579 and 0.8776
same,"absorbance after subtraction of background signal, avg",C8-D1A cells; [8],0.070 and 0.07003
same,"absorbance after subtraction of background signal, replicates 1-3",C8-D1A cells; [8],0.029 and 0.072 and 0.109
same,raw absorbance Avg.,C8-D1A cells; [8],0.514
same,"raw absorbance, replicates 1-3",C8-D1A cells; [8],0.4731 and 0.5164 and 0.5526
same,"absorbance after subtraction of background signal, avg",C8-D1A cells; [9],0.128 and 0.1278
same,"absorbance after subtraction of background signal, replicates 1-3",C8-D1A cells; [9],0.125 and 0.138 and 0.120
same,raw absorbance Avg.,C8-D1A cells; [9],0.5718
same,"raw absorbance, replicates 1-3",C8-D1A cells; [9],0.5823 and 0.5639 and 0.5691
same,"absorbance after subtraction of background signal, replicates 1-3",C8-D1A cells; [10],−0.021 and −0.023 and −0.022
same,raw absorbance Avg.,C8-D1A cells; [10],0.4217
same,"raw absorbance, replicates 1-3",C8-D1A cells; [10],0.4228 and 0.4206 and 0.4217
same,"absorbance after subtraction of background signal, replicates 1-3",C8-D1A cells; [11],−0.027 and −0.023 and −0.015
same,raw absorbance Avg.,C8-D1A cells; [11],0.4222
same,"raw absorbance, replicates 1-3",C8-D1A cells; [11],0.4209 and 0.429 and 0.4166
same,"absorbance after subtraction of background signal, replicates 1-3",C8-D1A cells; [12],−0.018 and −0.017 and −0.014
same,raw absorbance Avg.,C8-D1A cells; [12],0.4274
same,"raw absorbance, replicates 1-3",C8-D1A cells; [12],0.4258 and 0.4267 and 0.4296
same,"absorbance after subtraction of background signal, replicates 1-3",C8-D1A cells; [13],−0.015 and −0.016 and −0.013
same,raw absorbance Avg.,C8-D1A cells; [13],0.4291
same,"raw absorbance, replicates 1-3",C8-D1A cells; [13],0.4277 and 0.4307 and 0.4289
same,"absorbance after subtraction of background signal, replicates 1-3",C8-D1A cells; [14],−0.001 and −0.006 and 0.000
same,raw absorbance Avg.,C8-D1A cells; [14],0.4415
same,"raw absorbance, replicates 1-3",C8-D1A cells; [14],0.4431 and 0.4376 and 0.4439
same,"absorbance after subtraction of background signal, avg",C8-D1A cells; [15],0.005 and 0.004833
same,"absorbance after subtraction of background signal, replicates 1-3",C8-D1A cells; [15],0.002 and 0.004 and 0.008
same,raw absorbance Avg.,C8-D1A cells; [15],0.4488
same,"raw absorbance, replicates 1-3",C8-D1A cells; [15],0.4484 and 0.4523 and 0.4458
same,viability at 0.05 µM,C8-D1A cells; [16],12%
same,viability at 0.1 µM,C8-D1A cells; [16],23%
same,% cells apoptosed,C8-D1A cells; TNFa + H2O2 + NPD1 50 nM (TNFa + H2O2 alone: 99),88%
same,% cells apoptosed,C8-D1A cells; TNFa + H2O2 + NPD1 100 nM (TNFa + H2O2 alone: 99),77%
same,"viability at 24 h, 100 nM",[1],95.6%
same,cell viability (in words),"NSC34 cells; 100 nM NPD1, 24 hours with H2O2 and 10 ng/ml TNFα",increased cell viability
same,viability at 0.1 µM,"NSC34 cells; Mus musculus, NSC-34, read-out: % cell viability",78%
same,% Cell Viability,NSC34 cells; [17],105.1%
same,Avg Abs 450 nm,NSC34 cells; [17],0.7104
same,% Cell Viability,NSC34 cells; [18],95.6%
same,Avg Abs 450 nm,NSC34 cells; [18],0.645
same,% Cell Viability,"NSC34 cells; NPD 100 nM + TNFa 10 ng/ml + H2O2 10 uM, 24 hrs, listed as NPD",95.45%
same,% Cell Viability,NSC34 cells; [19],74.46%
same,Avg Abs 450 nm,NSC34 cells; [19],0.5031
same,% Cell Viability,NSC34 cells; [20],78.22%
same,Avg Abs 450 nm,NSC34 cells; [20],0.5285
same,% Cell Viability,NSC34 cells; [21],78.26%
same,Avg Abs 450 nm,NSC34 cells; [21],0.5288
same,% Cell Viability,NSC34 cells; [22],81.41%
same,Avg Abs 450 nm,NSC34 cells; [22],0.5501
same,Avg Abs 450 nm,"NSC34 cells; NPD 100 nM alone, 24 hrs incub.",0.6462
same,Percent saved with NPD1 (14/36),NSC34 cells; NPD1 100 nM vs TNFa + H2O2 alone,39%
same,cell viability (in words),NSC34 cells; NPD1 added to cells treated with 50-800 μM H2O2 and 10 ng/ml TNFα,increases in cell viability
same,% cells apoptosed,NSC34 cells; TNFa + H2O2 + NPD1 100 nM (TNFa + H2O2 alone: 36),22%
